This is an account of results in patent publication US4261989A, “Geldanamycin derivatives and antitumor drug” (Kaken Chemical Co. Ltd., priority 1979, dated 1981).

The first experiment deals with cancer cell W-2K-11. In words: Growth inhibition of cancer cell W-2K-11 (percent inhibition of cell multiplication, Table 2). It is filed as cell-based, mouse. As to conditions: Mus musculus, 48 h, read-out: Percent inhibition (%). As to the method:
Cancer cell W-2K-11 was obtained by transforming fibroblast C3H-2K clone derived from kidney of mouse by cancerogenic virus. The cancer cell W-2K-11 was cultured by the following method.
(1) Preparation of culture medium
9.4 Gram of Eagle's MEM culture media (manufactured by Nissui Seiyaku K. K.) was dissolved in 900 ml. of distilled water and the solution was sterilized under high pressure at 120° C. for 15 minutes and cooled. 100 Ml. of calf serum and 3-5 ml. of 10% aqueous solution of sodium bicarbonate were added to the solution to adjust pH to 7.1-7.2. 10 Ml. of an aqueous solution of L-glutamine (2.92 g./100 ml.) filtered by a millipore filter was added just before the use of the solution as culture medium.
(2) Preparation of transplanted cell solution
The cancer cell W-2K-11 stored in a freezer at -80° C. was melted at room temperature and treated by a centrifugal separator at 670 g. for 5 minutes. The precipitated cell was dispersed in 50 ml. of the culture medium (1). The suspension was charged into Roux flask and cultured at 37° C. The multiplication of the cells was initiated and accomplished after 3 to 4 days. The cultured mixture was decanted and 10 ml. of 0.2% trypsin solution was added and the mixture was kept at room temperature for 2 to 3 minutes and the trypsin mixture was decanted and then, 50 ml. of the culture medium (1) was added to prepare a suspension of cells.
(3) Incubation of cells and addition of sample
1.8 Ml. of the suspension of cells (2) was charged into each Petri dish and incubated in a carbon dioxide gas incubator (5% of CO2; 95% of air) at 37° C. Twenty four hours after the initiation of the incubation, 0.2 ml. of each ethanol solution of each sample was added, and the incubation was continued. Forty eight hours after the addition of the sample, numbers of survival cells were counted under a microscopic observation and each percent inhibition of cell multiplication was calculated. [formula]
Regarding `COC1/C=C\C=C(/C)C(=O)NC2=CC(=O)C(N3CC3)=C(CC(C)CC(OC)C(O)C(C)/C=C(\C)C1OC(N)=O)C2=O` (centres unmarked) [Example 2, 17-ethyleneimino-Geldenamycin], the inhibition at 1 µg/mL was determined as 97%.
The same measure, in the same setting: as for `CCCCCNC1=C2CC(C)CC(OC)C(O)C(C)/C=C(\C)C(OC(N)=O)C(OC)/C=C\C=C(/C)C(=O)NC(=CC1=O)C2=O` (centres unmarked) [Example 6], the figure is 90%.
With `CCCCCCCCCCNC1=C2CC(C)CC(OC)C(O)C(C)/C=C(\C)C(OC(N)=O)C(OC)/C=C\C=C(/C)C(=O)NC(=CC1=O)C2=O` (centres unmarked) [Example 10], the inhibition at 10 µg/mL stood at 48%.
Regarding `COC1/C=C\C=C(/C)C(=O)NC2=CC(=O)C(NCC(C)C)=C(CC(C)CC(OC)C(O)C(C)/C=C(\C)C1OC(N)=O)C2=O` (centres unmarked) [Example 12], the inhibition at 1 µg/mL stood at 90%.
Turning to `COC1/C=C\C=C(/C)C(=O)NC2=CC(=O)C(NCCCl)=C(CC(C)CC(OC)C(O)C(C)/C=C(\C)C1OC(N)=O)C2=O` (centres unmarked) [Example 20], the inhibition at 1 µg/mL is 98%.
Take `COC1C=CC=C(C)C(=O)NC2=CC(=O)C(NCc3ccncc3)=C(CC(C)CC(OC)C(O)C(C)C=C(C)C1OC(N)=O)C2=O` (centres unmarked) [Example 30]: the inhibition at 5 µg/mL is 95%.
Turning to `COC1C=CC=C(C)C(=O)NC2=CC(=O)C(NCCc3ccccn3)=C(CC(C)CC(OC)C(O)C(C)C=C(C)C1OC(N)=O)C2=O` (centres unmarked) [Example 31], the inhibition at 5 µg/mL turned out to be 93%.
For the compound `COC1=C2CC(C)CC(OC)C(O)C(C)C=C(C)C(OC(N)=O)C(OC)C=CC=C(C)C(=O)NC(=C(I)C1=O)C2=O` (centres unmarked) [Example 38, 19-iodo-Geldanamycin], the inhibition at 5 µg/mL was 95%.
On to `CNC(=O)OC1C(C)=CC(C)C(O)C(OC)CC(C)CC2=C(OC)C(=O)C=C(N=C(OC)C(C)=CC=CC1OC)C2=O` (centres unmarked) [Example 44, 1-O-methyl-7-OCONH-methyl-Geldanamycin], for which the inhibition at 1 µg/mL stood at 94% and the inhibition at 10 µg/mL was 80%.

Still in this experiment, the particulars now being: Mus musculus; concentration 0.5 μg/ml; 48 hours after addition of sample; W-2K-11 cells.
In turn, `COCCNC1=C2CC(C)CC(OC)C(O)C(C)C=C(C)C(OC(N)=O)C(OC)C=CC=C(C)C(=O)NC(=CC1=O)C2=O` (centres unmarked) [Example 33] displayed an inhibition at 0.5 µg/mL of 95%.

The experiment is the same for the next values; noted with them: Mus musculus; concentration 1 μg/ml; 48 hours after addition of sample; W-2K-11 cells; read-out: Percent inhibition (%).
Consider `CCCNC1=C2CC(C)CC(OC)C(O)C(C)/C=C(\C)C(OC(N)=O)C(OC)/C=C\C=C(/C)C(=O)NC(=CC1=O)C2=O` (centres unmarked) [Example 1, 17-n-propylamino-Geldanamycin], for which the inhibition at 1 µg/mL was found to be 92%.
The same measure, in the same setting: under `CCCCNC1=C2CC(C)CC(OC)C(O)C(C)/C=C(\C)C(OC(N)=O)C(OC)/C=C\C=C(/C)C(=O)NC(=CC1=O)C2=O` (centres unmarked) [Example 5] stands 85%; under `CCCCCCNC1=C2CC(C)CC(OC)C(O)C(C)/C=C(\C)C(OC(N)=O)C(OC)/C=C\C=C(/C)C(=O)NC(=CC1=O)C2=O` (centres unmarked) [Example 7], 90%.
Still for that read-out and setting: as for `CCCCCCCNC1=C2CC(C)CC(OC)C(O)C(C)/C=C(\C)C(OC(N)=O)C(OC)/C=C\C=C(/C)C(=O)NC(=CC1=O)C2=O` (centres unmarked) [Example 8], the figure is 96%.
For the compound `COC1/C=C\C=C(/C)C(=O)NC2=CC(=O)C(NC3CC3)=C(CC(C)CC(OC)C(O)C(C)/C=C(\C)C1OC(N)=O)C2=O` (centres unmarked) [Example 13], the inhibition at 1 µg/mL is 94%.
Same read-out and setting: under `COC1/C=C\C=C(/C)C(=O)NC2=CC(=O)C(NC3CCCC3)=C(CC(C)CC(OC)C(O)C(C)/C=C(\C)C1OC(N)=O)C2=O` (centres unmarked) [Example 14] stands 98%; under `COC1/C=C\C=C(/C)C(=O)NC2=CC(=O)C(NC3CCCCC3)=C(CC(C)CC(OC)C(O)C(C)/C=C(\C)C1OC(N)=O)C2=O` (centres unmarked) [Example 15], 98%.
Still for that read-out and setting: under `COC1/C=C\C=C(/C)C(=O)NC2=CC(=O)C(NCCO)=C(CC(C)CC(OC)C(O)C(C)/C=C(\C)C1OC(N)=O)C2=O` (centres unmarked) [Example 18] stands 98%; under `C=CCNC1=C2CC(C)CC(OC)C(O)C(C)/C=C(\C)C(OC(N)=O)C(OC)/C=C\C=C(/C)C(=O)NC(=CC1=O)C2=O` (centres unmarked) [Example 22], 93%; under `COC1C=CC=C(C)C(=O)NC2=CC(=O)C(NCc3ccccc3)=C(CC(C)CC(OC)C(O)C(C)C=C(C)C1OC(N)=O)C2=O` (centres unmarked) [Example 23], 88%.
On the same count and under the same terms, as for `COC1C=CC=C(C)C(=O)NC2=CC(=O)C(NCCc3ccccc3)=C(CC(C)CC(OC)C(O)C(C)C=C(C)C1OC(N)=O)C2=O` (centres unmarked) [Example 24], the figure is 82%; as for `COC1=NC2=CC(=O)C(OC)=C(CC(C)CC(OC)C(O)C(C)C=C(C)C(OC(N)=O)C(OC)C=CC=C1C)C2=O` (centres unmarked) [Example 40, 1-O-methyl-Geldanamycin], 80%; as for `CNC(=O)OC1C(C)=CC(C)C(O)C(OC)CC(C)CC2=C(OC)C(=O)C=C(C2=O)N(C)C(=O)C(C)=CC=CC1OC` (centres unmarked) [Example 42, 21-N-methyl-7-OCONH-methyl-Geldanamycin], 82%.
In the case of `CNC(=O)OC1C(C)=CC(C)C(O)C(OC)CC(C)CC2=C(OC)C(=O)C=C(NC(=O)C(C)=CC=CC1OC)C2=O` (centres unmarked) [Example 43, 7-OCONH-methyl Geldanamycin], the inhibition at 1 µg/mL turned out to be 60%.

The experiment is the same for the next values; noted with them: Mus musculus; concentration 5 μg/ml; 48 hours after addition of sample; W-2K-11 cells; read-out: Percent inhibition (%).
With `COC1/C=C\C=C(/C)C(=O)NC2=CC(=O)C(NCCN)=C(CC(C)CC(OC)C(O)C(C)/C=C(\C)C1OC(N)=O)C2=O` (centres unmarked) [Example 4], the inhibition at 5 µg/mL worked out at 57%.
Same read-out and setting: under `COC1C=CC=C(C)C(=O)NC2=CC(=O)C(NCCN3CCOCC3)=C(CC(C)CC(OC)C(O)C(C)C=C(C)C1OC(N)=O)C2=O` (centres unmarked) [Example 26] stands 93%; under `COC1C=CC=C(C)C(=O)NC2=CC(=O)C(NCc3ccccn3)=C(CC(C)CC(OC)C(O)C(C)C=C(C)C1OC(N)=O)C2=O` (centres unmarked) [Example 28], 90%; under `COC1C=CC=C(C)C(=O)NC2=CC(=O)C(NCc3cccnc3)=C(CC(C)CC(OC)C(O)C(C)C=C(C)C1OC(N)=O)C2=O` (centres unmarked) [Example 29], 92%.
Still for that read-out and setting: under `COC1C=CC=C(C)C(=O)NC2=CC(=O)C(NCCN3CCCC3)=C(CC(C)CC(OC)C(O)C(C)C=C(C)C1OC(N)=O)C2=O` (centres unmarked) [Example 32] stands 84%.
Same read-out and setting: as for `CNCCNC1=C2CC(C)CC(OC)C(O)C(C)C=C(C)C(OC(N)=O)C(OC)C=CC=C(C)C(=O)NC(=CC1=O)C2=O` (centres unmarked) [Example 34], the figure is 67%.
As for `COC1=C2CC(C)CC(OC)C(O)C(C)C=C(C)C(OC(N)=O)C(OC)C=CC=C(C)C(=O)NC(=C(Br)C1=O)C2=O` (centres unmarked) [Example 37, 19-bromo-Geldanamycin], the inhibition at 5 µg/mL amounted to 84%.
Same read-out and setting: under `COC1=C2CC(C)CC(OC)C(O)C(C)C=C(C)C(OC(N)=O)C(OC)C=CC=C(C)C(=O)NC(=C(Cl)C1=O)C2=O` (centres unmarked) [Example 39, 19-chloro-Geldanamycin] stands 91%.

The experiment is the same for the next values; noted with them: Mus musculus; concentration 10 μg/ml; 48 hours after addition of sample; W-2K-11 cells; read-out: Percent inhibition (%).
Take `CCCCCCCCNC1=C2CC(C)CC(OC)C(O)C(C)/C=C(\C)C(OC(N)=O)C(OC)/C=C\C=C(/C)C(=O)NC(=CC1=O)C2=O` (centres unmarked) [Example 9]: the inhibition at 10 µg/mL was 67%.
The same measure, in the same setting: under `CCCCCCCCCCCCNC1=C2CC(C)CC(OC)C(O)C(C)/C=C(\C)C(OC(N)=O)C(OC)/C=C\C=C(/C)C(=O)NC(=CC1=O)C2=O` (centres unmarked) [Example 11] stands 79%.
Still for that read-out and setting: as for `COC1/C=C\C=C(/C)C(=O)NC2=CC(=O)C(NC3CCCC3)=C(CC(C)CC(OC)C(O)C(C)/C=C(\C)C1OC(N)=O)C2=O` (centres unmarked) [Example 14], the figure is 97%; as for `COC1/C=C\C=C(/C)C(=O)NC2=CC(=O)C(NC3CCCCCC3)=C(CC(C)CC(OC)C(O)C(C)/C=C(\C)C1OC(N)=O)C2=O` (centres unmarked) [Example 16], 98%; as for `COC1/C=C\C=C(/C)C(=O)NC2=CC(=O)C(NCCOCCO)=C(CC(C)CC(OC)C(O)C(C)/C=C(\C)C1OC(N)=O)C2=O` (centres unmarked) [Example 19], 88%.
The same measure, in the same setting: under `COC1/C=C\C=C(/C)C(=O)NC2=CC(=O)C(NCCCCN)=C(CC(C)CC(OC)C(O)C(C)/C=C(\C)C1OC(N)=O)C2=O` (centres unmarked) [Example 21] stands 53%; under `COC1C=CC=C(C)C(=O)NC2=CC(=O)C(N3CCCC3)=C(CC(C)CC(OC)C(O)C(C)C=C(C)C1OC(N)=O)C2=O` (centres unmarked) [Example 25], 97%; under `COC1=NC2=CC(=O)C(OC)=C(CC(C)CC(OC)C(O)C(C)C=C(C)C(OC(N)=O)C(OC)C=CC=C1C)C2=O` (centres unmarked) [Example 40, 1-O-methyl-Geldanamycin], 95%.
Take `CNC(=O)OC1C(C)=CC(C)C(O)C(OC)CC(C)CC2=C(OC)C(=O)C=C(C2=O)N(C)C(=O)C(C)=CC=CC1OC` (centres unmarked) [Example 42, 21-N-methyl-7-OCONH-methyl-Geldanamycin]: the inhibition at 10 µg/mL was found to be 94%.
For `CNC(=O)OC1C(C)=CC(C)C(O)C(OC)CC(C)CC2=C(OC)C(=O)C=C(NC(=O)C(C)=CC=CC1OC)C2=O` (centres unmarked) [Example 43, 7-OCONH-methyl Geldanamycin], the inhibition at 10 µg/mL turned out to be 96%.

The same experiment, now with this note: concentration 1 μg/ml; 48 hours after addition of sample; W-2K-11 cells.
Take “17-demethoxy-17,19-bisdimethylamino-Geldenamycin [Example 35]”: the “Percent inhibition (%)” value is given as 92%.

Still in this experiment, the particulars now being: concentration 5 μg/ml; 48 hours after addition of sample; W-2K-11 cells.
`CO[C@H]1/C=C\C=C(/C)C(=O)NC2=CC(=O)C(NCCN3CCCCC3)=C(C[C@@H](C)C[C@H](OC)[C@H](O)[C@@H](C)/C=C(\C)[C@@H]1OC(N)=O)C2=O` [Example 27]: the “Percent inhibition (%)” value was determined as 57%.

The experiment is the same for the next values; noted with them: concentration 10 μg/ml; 48 hours after addition of sample; W-2K-11 cells.
Regarding “17-demethoxy-17,19-bisdimethylamino-Geldenamycin [Example 35]”, the “Percent inhibition (%)” value is reported as 97%.
With `COC1C=CC=C(C)C(=O)NC2=CC(=O)C(NCC34CC5CC(CC(C5)C3)C4)=C(CC(C)CC(OC)C(O)C(C)C=C(C)C1OC(N)=O)C2=O` (centres unmarked) [Example 17], the “Percent inhibition (%)” value is 98%.
